Experimental data: patent publication US20120165230A1, “BIOLOGICALLY PRODUCED CYCLIC AFFINITY TAGS” (LanthioPep B.V., priority 2009, published 2012)

Test system: L. lactis MG1363
Experiment: Antimicrobial activity: growth inhibition in two-fold dilution series in microwell plate, OD600 after 6 hours
Type: cell-based, Lactococcus lactis
Conditions: supernatant treated with trypsin to cleave off leader, two-fold dilutions
Method: FIG. 2. Antimicrobial activity of a truncated nisin mutant containing HPQF (SEQ ID NO:7) in ring C. Lactococcus lactis containing a first plasmid encoding NisB, NisT and NisC and a second plasmid encoding […] (SEQ ID NO:44) was induced. The supernatant was treated with trypsin to cleave off the leader peptide. Series of two-fold dilutions were made in a microwell plate and the peptide's capacity to inhibit the growth of L. lactis MG1363 was tested by measuring OD 600 after six hours of incubation. ∘: control with PBS, ▪: truncated nisin mutant, ▾: supernatant of nisin A-producing L. lactis NZ9700.
The leader was cleaved off with trypsin and the antimicrobial activity was measured as follows: In a microwell plate, 200 μl of supernatant of nisin fusion strain and in other wells, 200 μl of control (positive, e.g., filtered sup of NZ9700 and negative) solutions was added to the wells of the first column. 100 μl medium was added to the remaining empty wells. For each row, 100 μl from the first column was added to the second and, after mixing, from the second to the third, etc., leading to two-fold dilution steps. 100 μl of sensitive strain. MG1363 was added to all wells at low density, OD600: 0.05-0.1. After 6 hours, OD600 was measured.

Q: Which results are given for “ITSISLCTPGCKTHPQFCNMKEQKLISEED [H14, P15, Q16, F17, ΔG18 mutant of nisin (1-22) with internal strep-tag, coupled to external myc-tag EQKLISEED]”?
A: antimicrobial activity (inhibition of growth of L. lactis MG1363) (FIG. 2): clearly has antimicrobial activity; antimicrobial activity (inhibition of growth of L. lactis MG1363) (FIG. 2, listed as truncated nisin mutant): still has activity
